Consider 1 compound from patent US9163256B2, “Mutant receptors and their use in a nuclear receptor-based inducible gene expression system” (priority 2004, dated 2015).

For one data set, the target named is CfEcR-DEF mutant L132M (Choristoneura fumiferana, UniProt O77255, L415M). Briefly: cell-based. The format is cell-based. The conditions noted are these: NIH3T3, 40 h, read-out: Rel Max FI, mutant L132M. The procedure: (§1) This construct was prepared in the same way as in switch 1.1 above except wild-type CfEcR-DEF was replaced with mutant CfEcR-DEF comprising a ligand binding domain comprising a substitution mutation selected from Table 1 below.
(§2) DNAs were transfected into mouse NIH3T3 cells (ATCC) as follows. Standard methods for culture and maintenance of the cells were followed. Cells were harvested and plated 96-well plates at 2,500 cells per well, in 50 μL of growth medium containing 10% fetal bovine serum (FBS). Twenty-four hours later, the cells were treated with 35 μL of serum-free growth medium containing either dimethylsulfoxide (DMSO; control) or a DMSO solution of ligand. The cells were then transfected using Superfect (Qiagen Inc.) transfection reagent. For each well, 0.625 μL of Superfect was mixed with 14.2 μL of serum-free growth medium. 0.16 μg of reporter construct and 0.04 μg of each receptor construct were added to the transfection reagent mix. The contents of the transfection mix were mixed in a vortex mixer and let stand at room temperature for 30 minutes. At the end of incubation, 15 μL of transfection mix was added to the cells. The cells were maintained at 37° C. and 5% CO2 for 48 hours in 5% FBS.
(§3) Reporter Assays: Cells were harvested 40 hours after adding ligands. 125 μL of passive lysis buffer (part of Dual-Luciferase reporter assay system from Promega Corporation) were added to each well of the […] plate. The plates were placed on a rotary shaker for 15 minutes. Twenty μL of lysate were assayed. Luciferase activity was measured using Dual-Luciferase reporter assay system from Promega Corporation following the manufacturer's instructions. Fold induction (FI) activities were calculated by dividing relative light units (“RLU”) in ligand treated cells with RLU in DMSO treated cells (untreated control).

In data set [1] the target is CfEcR-DEF mutant V107I/Y127E/T52V (Choristoneura fumiferana, UniProt O77255, T335V/V390I/Y410E). As to the kind of experiment: GAL4-driven luciferase reporter assay in NIH3T3 cells. The format is cell-based. As to the method:
as §1, §2, §3

The target of data set [2] is CfEcR-DEF mutant T52V/A110P (Choristoneura fumiferana, UniProt O77255, A393P/T335V). Described as above. The format is cell-based. The procedure: as §1, §2, §3
In the next data set the target is CfEcR-DEF mutant F48N (Choristoneura fumiferana, UniProt O77255, F331N). Described as above. The format is cell-based. As to the method: as §1, §2, §3
In the next data set the target is CfEcR-DEF mutant M125W (Choristoneura fumiferana, UniProt O77255, M408W). Described as above. The format is cell-based. As to the method: as §1, §2, §3
The target of data set [3] is CfEcR-DEF mutant V107I/Y127E/G (Choristoneura fumiferana, UniProt O77255, INS541G/V390I/Y410E). Described as above. The format is cell-based. As to the method: as §1
The Gal-4-CfEcR-DEF(VYG) mutant was created by inserting an extra glycine at the C-terminal end of EcR substitution mutant V107I/Y127E [CfECR(VY)] by PCR. Essentially, this was done in two steps: PCR-amplification of CfEcR-DEF(VYG) and substitution of the CfEcR(VY) in the vector GAL4-CfEcR DEF(VY) pBIND 1-9 with the PCR-amplified CfEcR-DEF(VYG). The CfEcR-DEF region (with the extra glycine) was amplified by using the vector GAL4-CfEcR DEF(VY) pBIND 1-9 as template and the following PCR primers: […]
as §2, §3

For another data set, the target named is CfEcR-DEF mutant M125R (Choristoneura fumiferana, UniProt O77255, M408R). Briefly: cell-based. The gist of the method:
(§4)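 Mutant CfEcR-DEF receptor and GAL4-driven luciferase reporter constructs transfected into mouse NIH3T3 cells with DMSO or ligand added; maintained 48 h at 37° C in 5% FBS, harvested 40 h after ligand addition. Dual-luciferase read-out; fold induction = RLU with ligand / RLU with DMSO.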

Another data set addresses CfEcR-DEF mutant A110W (Choristoneura fumiferana, UniProt O77255, A393W). As to the kind of experiment: cell-based. In short, it runs like this: as §4
Where [4] appears, read: NIH3T3, 40 h, read-out: Rel Max FI.

SMILES strings stand for the structures. Read-outs that look alike come from different tables or passages of the source. A value given as a limit tells only on which side of the number the result lay.

Sequence of CfEcR-DEF mutant T52V/A110P (O77255 entry or part of it T335V/A393P): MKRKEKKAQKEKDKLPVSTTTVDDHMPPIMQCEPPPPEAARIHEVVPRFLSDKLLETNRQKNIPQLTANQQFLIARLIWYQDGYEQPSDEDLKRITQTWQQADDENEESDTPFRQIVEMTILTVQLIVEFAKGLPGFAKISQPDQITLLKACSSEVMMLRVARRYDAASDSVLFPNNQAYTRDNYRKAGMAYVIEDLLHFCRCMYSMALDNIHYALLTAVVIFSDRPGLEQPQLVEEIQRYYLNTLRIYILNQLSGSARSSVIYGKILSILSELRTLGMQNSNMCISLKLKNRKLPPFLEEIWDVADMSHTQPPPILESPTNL
Sequence of CfEcR-DEF mutant T52V/A110P (P28702 299-449, stated change not applied, further chain): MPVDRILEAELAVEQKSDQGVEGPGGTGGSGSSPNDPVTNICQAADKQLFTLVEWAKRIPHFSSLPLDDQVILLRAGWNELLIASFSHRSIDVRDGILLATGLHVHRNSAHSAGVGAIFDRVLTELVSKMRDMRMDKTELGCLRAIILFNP
Sequence of CfEcR-DEF mutant M125W (O77255 entry or part of it M408W): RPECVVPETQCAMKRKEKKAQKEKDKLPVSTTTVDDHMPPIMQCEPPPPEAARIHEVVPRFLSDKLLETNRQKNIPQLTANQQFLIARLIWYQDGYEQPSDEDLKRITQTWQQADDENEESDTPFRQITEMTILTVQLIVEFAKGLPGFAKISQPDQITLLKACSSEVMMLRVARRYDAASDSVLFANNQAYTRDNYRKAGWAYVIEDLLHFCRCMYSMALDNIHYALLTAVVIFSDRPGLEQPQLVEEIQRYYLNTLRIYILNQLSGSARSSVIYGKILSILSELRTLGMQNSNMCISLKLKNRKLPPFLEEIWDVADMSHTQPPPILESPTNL
Sequence of CfEcR-DEF mutant M125W (P28702 299-449, further chain): as the sequence (P28702 299-449, stated change not applied, further chain) above
Sequence of CfEcR-DEF mutant M125R (P28702 299-449): as the sequence (P28702 299-449, stated change not applied, further chain) above
Sequence of CfEcR-DEF mutant M125R (O77255 entry or part of it M408R): as the sequence (O77255 entry or part of it T335V/A393P) above, with V117T, P175A, M190R counted along it
Sequence of CfEcR-DEF mutant V107I/Y127E/T52V (P28702 299-449): as the sequence (P28702 299-449, stated change not applied, further chain) above
Sequence of CfEcR-DEF mutant V107I/Y127E/T52V (O77255 entry or part of it T335V/V390I/Y410E): as the sequence (O77255 entry or part of it T335V/A393P) above, with V172I, P175A, Y192E counted along it
Sequence of CfEcR-DEF mutant V107I/Y127E/G (P28702 299-449, stated change not applied): as the sequence (P28702 299-449, stated change not applied, further chain) above
Sequence of CfEcR-DEF mutant V107I/Y127E/G (O77255 entry or part of it V390I/Y410E/INS541G): as the sequence (O77255 entry or part of it T335V/A393P) above, with V117T, P175A counted along it
Sequence of CfEcR-DEF mutant A110W (P28702 299-449, stated change not applied): as the sequence (P28702 299-449, stated change not applied, further chain) above
Sequence of CfEcR-DEF mutant A110W (O77255 entry or part of it A393W): as the sequence (O77255 entry or part of it M408W) above, with A187W, W202M counted along it
Sequence of CfEcR-DEF mutant F48N (O77255 entry or part of it F331N): as the sequence (O77255 entry or part of it M408W) above, with F125N, W202M counted along it
Sequence of CfEcR-DEF mutant F48N (P28702 299-449, further chain): as the sequence (P28702 299-449, stated change not applied, further chain) above
Sequence of CfEcR-DEF mutant L132M (O77255 entry or part of it L415M): as the sequence (O77255 entry or part of it M408W) above, with W202M, L209M counted along it
Sequence of CfEcR-DEF mutant L132M (P28702 298-449, further chain): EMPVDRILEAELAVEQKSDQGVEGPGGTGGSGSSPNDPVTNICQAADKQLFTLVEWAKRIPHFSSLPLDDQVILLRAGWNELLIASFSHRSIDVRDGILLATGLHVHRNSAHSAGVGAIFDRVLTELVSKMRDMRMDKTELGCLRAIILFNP

The EC50 is the concentration needed to bring the measured effect to its halfway point. Read a low EC50 as higher potency in that assay. For orientation: melting point means the temperature of the solid-liquid transition. `Cc1cc(C)cc(C(=O)N(NC(=O)c2cccc(C(C)C)c2C)C(C)(C)C)c1` [RG-102362, 3,5-Dimethyl-benzoic acid N-tert-butyl-N′-(3-isopropyl-2-methyl-benzoyl)-hydrazide] returned a melting point of 182.5 °C. Moreover, at CfEcR-DEF mutant L132M, the Emax stood at 1%. The Emax at CfEcR-DEF mutant L132M (relative to max fold induction of GS-E ligand) was determined as 66%. In addition, the 50% effective concentration (EC50) in data set [1] is below 10 nM. The Emax in data set [1] (setting [4]) turned out to be 73%. The compound also showed an EC50 in data set [2] of 320 nM. Also, the Emax in [2] (setting [4]) worked out at 94%. On CfEcR-DEF mutant F48N, this compound returned a half-maximal effective concentration (EC50) of 1680 nM. On CfEcR-DEF mutant F48N (setting [4]), the Emax came out at 66%. Besides, the EC50 at CfEcR-DEF mutant M125W turned out to be 3500 nM. At CfEcR-DEF mutant M125W (setting [4]), the Emax came out at 44%. For the same compound, in [3], the midpoint of the response, the EC50, lay at 60 nM. The Emax in [3] (setting [4]) worked out at 81%. The response at CfEcR-DEF mutant M125R was half-maximal at 10400 nM (EC50). Moreover, the Emax at CfEcR-DEF mutant M125R (setting [4]) turned out to be 0%. At CfEcR-DEF mutant A110W, it took 2990 nM to reach a half-maximal effect (EC50). Also, the Emax at CfEcR-DEF mutant A110W (setting [4]) turned out to be 55%.
